This passage reports IC50 results from patent US20250034150A1, “BTK INHIBITORS” (BIOGEN MA INC., priority 2021, published 2025).

A word on the IC50: it is the concentration that inhibits the measured activity by half.

Where two headings read alike, the source gives them in different places. Some results are limits rather than exact numbers.

The target of one test is T1, BTK (Homo sapiens, UniProt Q06187).
T1 construct: purchased Upstate 14-552
Description: In Vitro BTK Kinase Assay: Btk-PolyGAT-LS Assay. Format: biochemical. Particulars: active BTK enzyme 0.25 nM, polyGAT 100 nM, 30 minutes, TRF readout; read-out: In Vitro BTK Kinase Assay IC50 Score. The procedure, abridged: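 Active BTK at 0.25 nM phosphorylated 100 nM fluorescein-polyGAT peptide at 10 μM ATP for 30 minutes. Buffer was Tris pH 7.5 with MgCl2, DTT, Triton X-100 and casein, and reactions were stopped with EDTA. Phospho-peptide was detected by Tb-PY20 antibody TR-FRET, and IC50 came from a four-parameter fit normalized to DMSO and EDTA controls.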

In test [1] the test system is CD69 expression on CD19+ B cells in human whole blood. Description: In Vitro whole blood CD69 Assay. As to conditions: B-cell, read-out: In Vitro HWB CD69 Assay IC50 Score. Type of test: cell-based. The procedure, abridged: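 Heparinized healthy-donor human whole blood was preincubated with compound (0.1% DMSO) for 30 min at 37 °C. Stimulation used 0.1 µg/mL anti-IgD-dextran or 20 µg/mL rabbit F(ab′)2 anti-IgD for 18–22 h at 37 °C. CD69 on gated CD19+ B cells was then measured by flow cytometry.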

Setting [2] is: human heparinized whole blood, anti-human IgD stimulation overnight, CD19+ B cells, flow cytometry.

T1 sequence (Q06187 whole entry): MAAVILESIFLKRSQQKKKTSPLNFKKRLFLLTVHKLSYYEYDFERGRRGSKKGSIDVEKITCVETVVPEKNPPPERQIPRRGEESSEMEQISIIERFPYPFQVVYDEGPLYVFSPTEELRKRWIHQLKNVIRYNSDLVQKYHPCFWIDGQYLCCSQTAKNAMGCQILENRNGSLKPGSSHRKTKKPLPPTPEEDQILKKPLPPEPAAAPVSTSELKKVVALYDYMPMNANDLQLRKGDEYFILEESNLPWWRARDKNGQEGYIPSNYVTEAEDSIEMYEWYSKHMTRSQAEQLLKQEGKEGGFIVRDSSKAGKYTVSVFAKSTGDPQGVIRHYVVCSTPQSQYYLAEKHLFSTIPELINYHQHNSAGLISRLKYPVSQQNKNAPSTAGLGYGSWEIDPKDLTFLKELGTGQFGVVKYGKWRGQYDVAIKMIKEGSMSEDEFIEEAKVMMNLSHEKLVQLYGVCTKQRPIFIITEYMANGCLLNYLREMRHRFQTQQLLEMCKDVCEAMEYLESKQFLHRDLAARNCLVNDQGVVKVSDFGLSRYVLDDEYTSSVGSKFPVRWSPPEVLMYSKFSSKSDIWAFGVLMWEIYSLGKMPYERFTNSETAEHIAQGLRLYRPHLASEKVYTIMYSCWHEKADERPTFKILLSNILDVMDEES

With `Cc1cc(-c2nc(-c3cnn(C)c3)cn3nccc23)ccc1CNC(=O)c1nnn(C(C)(C)C)n1` [Example 15, 2-(tert-butyl)-N-(2-methyl-4-(6-(1-methyl-1H-pyrazol-4-yl)pyrazolo[1,5-a]pyrazin-4-yl)benzyl)-2H-tetrazole-5-carboxamide], the figures for the IC50 (on BTK; in test [1] (setting [2])) were less than 1 nM and less than 1000 nM, respectively.
For `Cn1cc(-c2cn3nccc3c(-c3ccc4c(c3)CN(C3COC3)CC[C@H]4NC(=O)c3cn(C(C)(C)C)nn3)n2)cn1` [Example 39, 1-tert-butyl-N-[(5R)-8-[6-(1-methylpyrazol-4-yl)pyrazolo[1,5-a]pyrazin-4-yl]-2-(oxetan-3-yl)-1,3,4,5-tetrahydro-2-benzazepin-5-yl]triazole-4-carboxamide], in that order: less than 1 nM and less than 1000 nM.
On to `Cc1cc(-c2cc(-c3cnn(C)c3)cn3nccc23)ccc1CNC(=O)c1noc(C2(C)CC2)n1` [Example 65, N-(2-methyl-4-(6-(1-methyl-1H-pyrazol-4-yl)pyrazolo[1,5-a]pyridin-4-yl)benzyl)-5-(1-methylcyclopropyl)-1,2,4-oxadiazole-3-carboxamide], for which the IC50 is less than 1 nM on BTK and less than 1000 nM in test [1] (Homo sapiens).
Take `Cn1cc(-c2cn3nccc3c(-c3ccc(CNC(=O)c4coc(C(C)(C)C)n4)c(C(F)F)c3)n2)cn1` [Example 101, 2-(tert-butyl)-N-(2-(difluoromethyl)-4-(6-(1-methyl-1H-pyrazol-4-yl)pyrazolo[1,5-a]pyrazin-4-yl)benzyl)oxazole-4-carboxamide]: the IC50 at BTK fell in the range of 1 to 10 nM; in test [1] (setting [2]), 1000 to 10000 nM.
For the compound `CC1CN(c2nc(-c3cnn(C)c3)cn3nccc23)CCC1CNC(=O)c1noc(C2(C)CC2)n1` (centres unmarked) [Example 149, N-((3-methyl-1-(6-(1-methyl-1H-pyrazol-4-yl)pyrazolo[1,5-a]pyrazin-4-yl)piperidin-4-yl)methyl)-5-(1-methylcyclopropyl)-1,2,4-oxadiazole-3-carboxamide], the IC50 at BTK was 1 to 10 nM; in test [1] (setting [2]), 1000 to 10000 nM.
In the case of `Cn1cc(-c2cn3nccc3c(-c3ccc(CNC(=O)c4noc(C(C)(C)C)n4)c(F)c3)n2)cn1` [Example 117, 5-(tert-butyl)-N-(2-fluoro-4-(6-(1-methyl-1H-pyrazol-4-yl)pyrazolo[1,5-a]pyrazin-4-yl)benzyl)-1,2,4-oxadiazole-3-carboxamide], the half-inhibitory concentration (IC50) is less than 1 nM at BTK and less than 1000 nM in test [1] (setting [2]).
For the compound `Cn1cc(-c2cn3nccc3c(N3CCC(C)(CNC(=O)c4cn(C(C)(C)C)nn4)CC3)n2)cn1` [Example 44, 1-(tert-butyl)-N-((4-methyl-1-(6-(1-methyl-1H-pyrazol-4-yl)pyrazolo[1,5-a]pyrazin-4-yl)piperidin-4-yl)methyl)-1H-1,2,3-triazole-4-carboxamide], the IC50 on BTK was 10 to 1000 nM; in test [1] (setting [2]), 1000 to 10000 nM.
For `Cn1cc(-c2cn3nccc3c(-c3ccc(CNC(=O)c4coc(C(C)(C)C)n4)c(F)c3F)n2)cn1` [Example 90, 2-(tert-butyl)-N-(2,3-difluoro-4-(6-(1-methyl-1H-pyrazol-4-yl)pyrazolo[1,5-a]pyrazin-4-yl)benzyl)oxazole-4-carboxamide], in that order: less than 1 nM and less than 1000 nM.
For `Cc1cc(-c2nc(-c3cnn(C)c3)cn3nccc23)ccc1CNC(=O)c1ccn(C(C)(C)C)n1` [Example 18, 1-(tert-butyl)-N-(2-methyl-4-(6-(1-methyl-1H-pyrazol-4-yl)pyrazolo[1,5-a]pyrazin-4-yl)benzyl)-1H-pyrazole-3-carboxamide], in that order: 1 to 10 nM and less than 1000 nM.
Regarding `Cn1cc(-c2cn3nccc3c(-c3ccc(CNC(=O)c4nnc(C(C)(C)C)o4)c(C(F)F)c3)n2)cn1` [Example 102, 5-(tert-butyl)-N-(2-(difluoromethyl)-4-(6-(1-methyl-1H-pyrazol-4-yl)pyrazolo[1,5-a]pyrazin-4-yl)benzyl)-1,3,4-oxadiazole-2-carboxamide], the IC50 at BTK was less than 1 nM; in test [1] (setting [2]), less than 1000 nM.
For `C[C@@H]1C[C@@H](CNC(=O)c2cn(C(C)(C)C)nn2)CCN1c1nc(-c2cnn(C)c2)cn2nccc12` (single isomer, unassigned) [Example 143], the IC50 fell in the range of 1 to 10 nM on BTK and 1000 to 10000 nM in test [1] (setting [2]).
`Cn1cc(-c2cn3nccc3c(N3CCC(CN4CCN(CC(C)(C)C)CC4=O)CC3)n2)cn1` [Example 172, 1-((1-(6-(1-methyl-1H-pyrazol-4-yl)pyrazolo[1,5-a]pyrazin-4-yl)piperidin-4-yl)methyl)-4-neopentylpiperazin-2-one]: the IC50 at BTK fell in the range of 10 to 1000 nM; in test [1] (setting [2]), 1000 to 10000 nM.
With `CN1CCN(c2cn3nccc3c(-c3ccc(CNC(=O)c4nc(C(C)(C)C)no4)c(F)c3)n2)CC1` [Example 118, 3-(tert-butyl)-N-(2-fluoro-4-(6-(4-methylpiperazin-1-yl)pyrazolo[1,5-a]pyrazin-4-yl)benzyl)-1,2,4-oxadiazole-5-carboxamide], the figures for the IC50 (on BTK; in test [1] (setting [2])) were 1 to 10 nM and 1000 to 10000 nM, respectively.
For `Cn1cc(-c2cn3nccc3c(N3CCC(C)(CNC(=O)c4nnn(C(C)(C)C)n4)CC3)n2)cn1` [Example 43, 2-(tert-butyl)-N-((4-methyl-1-(6-(1-methyl-1H-pyrazol-4-yl)pyrazolo[1,5-a]pyrazin-4-yl)piperidin-4-yl)methyl)-2H-tetrazole-5-carboxamide], in that order: 10 to 1000 nM and 1000 to 10000 nM.
On to `CC1CN(c2nc(-c3cnn(C)c3)cn3nccc23)CCC1CNC(=O)c1noc(C(C)(C)C)n1` (centres unmarked) [Example 144, 5-(tert-butyl)-N-((3-methyl-1-(6-(1-methyl-1H-pyrazol-4-yl)pyrazolo[1,5-a]pyrazin-4-yl)piperidin-4-yl)methyl)-1,2,4-oxadiazole-3-carboxamide], for which the results for the IC50 (at BTK; in test [1] (Homo sapiens)) were 1 to 10 nM and less than 1000 nM, respectively.
`Cn1cc(-c2cn3nccc3c(-c3ccc(CNC(=O)c4noc(C5(CF)CC5)n4)cc3)n2)cn1` [Example 20, 5-(1-(fluoromethyl)cyclopropyl)-N-(4-(6-(1-methyl-1H-pyrazol-4-yl)pyrazolo[1,5-a]pyrazin-4-yl)benzyl)-1,2,4-oxadiazole-3-carboxamide]: the IC50 on BTK was less than 1 nM; in test [1] (setting [2]), less than 1000 nM.
As for `COCCOc1cn2nccc2c(-c2ccc(CNC(=O)c3cn(C(C)(C)C)nn3)c(C)c2)n1` [Example 122, 1-(tert-butyl)-N-(4-(6-(2-methoxyethoxy)pyrazolo[1,5-a]pyrazin-4-yl)-2-methylbenzyl)-1H-1,2,3-triazole-4-carboxamide], the IC50 at BTK was 1 to 10 nM; in test [1] (setting [2]), less than 1000 nM.
Consider `Cn1cc(-c2cn3nccc3c(-c3ccc(CNC(=O)c4cn(C(C)(C)C)nn4)c(F)c3)n2)cn1` [Example 9, 1-(tert-butyl)-N-(2-fluoro-4-(6-(1-methyl-1H-pyrazol-4-yl)pyrazolo[1,5-a]pyrazin-4-yl)benzyl)-1H-1,2,3-triazole-4-carboxamide], for which the IC50 at BTK was less than 1 nM; in test [1] (setting [2]) it was less than 1000 nM.
In the case of `COCCOc1cn2nccc2c(-c2ccc(CNC(=O)c3nc(C4(C)CC4)no3)c(C)c2)n1` [Example 133, N-(4-(6-(2-methoxyethoxy)pyrazolo[1,5-a]pyrazin-4-yl)-2-methylbenzyl)-3-(1-methylcyclopropyl)-1,2,4-oxadiazole-5-carboxamide], the IC50 at BTK fell in the range of 1 to 10 nM; in test [1] (setting [2]), 1000 to 10000 nM.
For `Cn1cc(-c2cc(-c3ccc(CNC(=O)c4ccn(C(C)(C)C)n4)c(F)c3)c3ccnn3c2)cn1` [Example 70, 1-(tert-butyl)-N-(2-fluoro-4-(6-(1-methyl-1H-pyrazol-4-yl)pyrazolo[1,5-a]pyridin-4-yl)benzyl)-1H-pyrazole-3-carboxamide], in that order: 1 to 10 nM and 1000 to 10000 nM.
Consider `Cn1cc(-c2cc3nccn3c(-c3ccc(CNC(=O)c4nnn(C(C)(C)C)n4)cc3)n2)cn1` [Example 58, 2-(tert-butyl)-N-(4-(7-(1-methyl-1H-pyrazol-4-yl)imidazo[1,2-c]pyrimidin-5-yl)benzyl)-2H-tetrazole-5-carboxamide], for which the IC50 at BTK is less than 1 nM; in test [1] (setting [2]) it was less than 1000 nM.
Regarding `Cn1cc(-c2cn3nccc3c(N3CC[C@@H](CNC(=O)c4noc(C(C)(C)C)n4)[C@@H](F)C3)n2)cn1` (single isomer, unassigned) [Example 156], the results for the IC50 (on BTK; in test [1] (setting [2])) were 1 to 10 nM and less than 1000 nM, respectively.
The like results for `Cn1cc(-c2cn3nccc3c(-c3ccc(CNC(=O)c4noc(C(C)(C)C)n4)nc3)n2)cn1` [Example 116, 5-(tert-butyl)-N-((5-(6-(1-methyl-1H-pyrazol-4-yl)pyrazolo[1,5-a]pyrazin-4-yl)pyridin-2-yl)methyl)-1,2,4-oxadiazole-3-carboxamide] were, in that order, 1 to 10 nM and 1000 to 10000 nM.
The like results for `Cn1cc(-c2cn3nccc3c(-c3ccc(CNC(=O)c4cnn(C(C)(C)C)n4)c(C(F)F)c3)n2)cn1` [Example 104, 2-(tert-butyl)-N-(2-(difluoromethyl)-4-(6-(1-methyl-1H-pyrazol-4-yl)pyrazolo[1,5-a]pyrazin-4-yl)benzyl)-2H-1,2,3-triazole-4-carboxamide] were, in that order, less than 1 nM and 1000 to 10000 nM.
For `Cn1cc(-c2cn3nccc3c(-c3ccc(CNC(=O)c4ccn(C(C)(C)C)n4)c(F)c3F)n2)cn1` [Example 91, 1-(tert-butyl)-N-(2,3-difluoro-4-(6-(1-methyl-1H-pyrazol-4-yl)pyrazolo[1,5-a]pyrazin-4-yl)benzyl)-1H-pyrazole-3-carboxamide], the IC50 at BTK lay in the range of 1 to 10 nM; in test [1] (setting [2]) it was 1000 to 10000 nM.
